Source: paper PMC3253915 (Molecular Genetics and Metabolism, 2011)

Biological target: human GALK (Homo sapiens, UniProt P51570)
Assay: GALK inhibition in vitro
Type: biochemical
Conditions: unpublished data

Chain of human GALK (P51570 whole entry): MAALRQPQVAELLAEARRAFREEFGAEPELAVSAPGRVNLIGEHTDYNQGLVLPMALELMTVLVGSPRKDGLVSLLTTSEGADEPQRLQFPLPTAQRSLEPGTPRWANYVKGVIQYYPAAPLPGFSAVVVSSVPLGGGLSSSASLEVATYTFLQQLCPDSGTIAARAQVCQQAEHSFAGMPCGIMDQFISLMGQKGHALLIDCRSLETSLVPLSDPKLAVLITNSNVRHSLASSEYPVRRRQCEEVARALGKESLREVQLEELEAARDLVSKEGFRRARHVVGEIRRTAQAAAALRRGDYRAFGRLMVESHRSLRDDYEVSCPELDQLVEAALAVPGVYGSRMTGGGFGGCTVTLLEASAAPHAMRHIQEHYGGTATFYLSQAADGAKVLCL

GALK inhibition (at low millimolar (mM) range)	GALK inhibition (galactose derivative)	Compound
no inhibition	–	OC[C@H]1OC(O)[C@H](O)[C@@H](O)[C@@H]1O (stereo partly drawn) [glucose]
–	did not result in GALK inhibition	O=CC[C@@H](O)[C@@H](O)[C@H](O)CO [2-deoxygalactose]
no inhibition	–	O=C(CO)[C@@H](O)[C@H](O)[C@H](O)CO [fructose]
